# Read-outs that look alike come from different tables or passages of the source.
# Key:
# [1] = target: T1, Rac1 activated by DH/PH domain of Guanine nucleotide Exchange Factor Tiam1 (Rac1/Tiam1) (Homo sapiens, UniProt P63000); experiment: Nucleotide binding assay: BODIPY-GTP binding to Rac1 activated by Tiam1 DH/PH; assay type: biochemical; settings: final concentration of 50 μM; Rac1/Tiam1; read-out: Rac1 % inhibition of BODIPY-GTP binding
# T1 construct: made in house; host or cells: E. coli BL21 Codon+RIL
# Protocol: (§1) Fluorescence of GTP analog BODIPY-GTP increases when it binds to small G proteins. This property was used to assess ability of compounds to inhibit nucleotide binding to Rac1, Rac1b and Cdc42. 2 μM GST-Rac1 and 6 μg His6-Tiam1-DH/PH were diluted in a buffer containing 20 mM Tris, 50 mM NaCl, and 1 mM MgCl2. This mixture was loaded in a 96-well plate. Fluorescence recording were started (λEx: 485 nm; λEm: 538 nm) using a spectrofluorimeter (Fluoroskan; Thermolab Systems). Assay was initiated by the addition of 2 μM BODIPY-GTP with or without various doses of test compound. Fluorescence values were recorded, and data were processed as follows: background fluorescence (unbound BODIPY-GTP) was retrieved from fluorescence values.
# (§2) This assay allows determining whether compounds can inhibit the binding of a fluorescent nucleotide to recombinant small G proteins of interest. The effect of various alkaloid compounds on binding of BODIPY-GTP to Rac1 activated by DH/PH domain of Guanine nucleotide Exchange Factor Tiam1 (Rac1/Tiam1), Rac1b and Cdc42 is described below.
# Cdc42 = target: T2, Cdc42 (Homo sapiens, UniProt P60953); experiment: Nucleotide binding assay: BODIPY-GTP binding to Cdc42; assay type: biochemical; settings: final concentration of 50 μM; read-out: Cdc42 % inhibition of BODIPY-GTP binding
# T2 construct: GST (N); made in house; host or cells: E. coli BL21 Codon+RIL
# Protocol: as §1, §2
# Rac1b = target: T3, Rac1b (Homo sapiens, UniProt P63000); experiment: Nucleotide binding assay: BODIPY-GTP binding to Rac1b; assay type: biochemical; settings: final concentration of 50 μM; read-out: Rac1b % inhibition of BODIPY-GTP binding
# T3 construct: GST (N); made in house; host or cells: E. coli BL21 Codon+RIL
# Protocol: as §1, §2
# NIH3T3 and PC-3 cells = settings: cited from earlier work
# HCT116 cell line = experiment: Soft agar assay (anchorage-independent colony formation); assay type: cell-based; settings: HCT116, 7 days
# Excerpt: Colony formation in soft agar is the most widely used assay to evaluate anchorage-independent growth potential and represents one of the best in vitro assays that correlates strongly with in vivo tumorigenic cell growth potential. Normal cells require adherence and spreading onto a solid substratum in order to remain viable and proliferate. In contrast, cancer cell line HCT116 (ATCC clone number CCL-247) lost this requirement and therefore can form proliferating colonies of cells when suspended in a semisolid agar medium. The assay was performed in 24-well plates, using duplicates wells for each compound concentration. Briefly, a 0.5% Bacto™ Agar (BD Biosciences) bottom layer (prepared in HCT116 complete growth medium supplemented or not with the tested compound) was poured first and allowed to harden (0.3 ml per well). HCT116 were trypsinized to generate a uniform single cell suspension. Five×10^3 cells per well were resuspended in 0.3% agar supplemented with complete growth medium, with or without several compound concentrations to form the top layer (0.3 ml per well). HCT116 were allowed to grow for 7 days in these conditions and then analysed for colonies formation. Analysis was performed from pictures taken under a microscope that are representative from 2 different fields of the well. For each field, 2 different focal plans were taken and were merged using ImageJ software. The number of colonies were scored and colonies' size were measured. IC50 were determined for the number and size of colonies using GraphPad Prism (GraphPad) software. Data are mean values of 2 to 3 independent experiments.
# RhoA = RhoA (Homo sapiens, UniProt P61586); settings: cited from earlier work
# RhoA, sequence (P61586 whole entry, species assumed): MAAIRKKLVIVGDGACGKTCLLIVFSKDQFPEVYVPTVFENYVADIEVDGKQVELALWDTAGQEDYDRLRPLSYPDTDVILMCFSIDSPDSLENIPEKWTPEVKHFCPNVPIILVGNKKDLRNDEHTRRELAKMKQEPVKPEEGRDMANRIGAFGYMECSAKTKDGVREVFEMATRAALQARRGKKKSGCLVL
# T2 sequence (P60953 whole entry, species assumed): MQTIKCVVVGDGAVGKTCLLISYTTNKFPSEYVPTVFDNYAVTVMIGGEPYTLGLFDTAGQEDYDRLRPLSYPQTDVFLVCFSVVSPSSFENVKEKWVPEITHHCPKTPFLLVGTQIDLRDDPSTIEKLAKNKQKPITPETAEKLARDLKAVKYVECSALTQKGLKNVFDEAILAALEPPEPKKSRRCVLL
inhibition at 50 µM [1] [%],inhibition at 50 µM (Cdc42) [%],melting point [°C],inhibition at 50 µM (Rac1b) [%],SMILES,"effective dose, Rac1-mediated cellular functions (NIH3T3 and PC-3 cells) [µM]","IC50 (HCT116 cell line; read-out: Soft agar assay IC50, Clone Number) [µM]","IC50 (HCT116 cell line; read-out: Soft agar assay IC50, Clone Size) [µM]",effect on RhoA activation (RhoA)
9 ± 2,17 ± 3,178.8,19 ± 3,"Cl.Oc1cc2c(cc1O)CN(Cc1cccc(O)c1O)CC2 [Compound 19, 2-(2,3-Dihydroxybenzyl)-6,7-dihydroxy-1,2,3,4-tetrahydroisoquinolinium chloride]",–,–,–,–
–,–,–,–,"CCN(CC)CCCC(C)Nc1nc(C)cc(Nc2ccc3nc(C)cc(N)c3c2)n1 (centres unmarked) [NSC 23766, reference compound]",50 to 100,64.2 ± 4.8,27.9 ± 5,no effect

# — patent publication US20100120810A1, “COMPOUNDS AND METHODS FOR MODULATING RHO GTPASES” (priority 2007, published 2010)
